Patent US20230227466A1, “SUBSTITUTED THIENOPYRIMIDINES THAT INTERACT WITH THE RAS SUPERFAMILY FOR THE TREATMENT OF CANCERS, INFLAMMATORY DISEASES, RASOPATHIES, AND FIBROTIC DISEASE” (SHY Therapeutics, LLC, priority 2020, published 2023)

Experiments:
Test in all cases: Cell proliferation assay (CellTiter 96 Aqueous One)
Type in all cases: cell-based
[1] = tested on: PANC-1 pancreatic cancer cell line (KRAS G12D); details: Homo sapiens; PANC-1, 2-4 days, 10% FBS
In short: (§1)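 Percent inhibition of proliferation is derived from MTS absorbance data. Cells seeded at 2000–5000 per well were grown overnight before treatment. Compounds, at 10 μM final or in dilution series, stayed on cells for 2–4 days in medium containing 10% FBS and 0.3% DMSO.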

[2] = tested on: A-549 NSCLC cell line (KRAS G12S); details: Homo sapiens; A549, 2-4 days, 10% FBS
In short: as §1

[3] = tested on: SW-620 colorectal cancer cell line (KRAS G12V); details: Homo sapiens; SW-620, 2-4 days, 10% FBS
In short: as §1

IC50 [1] | IC50 [2] | IC50 [3] | Structure (SMILES)
0.75 to 1 µM | 0.75 to 1 µM | 0.75 to 1 µM | COCC1CCN(c2nc(-c3nccn3C)nc3sc(-c4ccn(C(C)C)n4)c(C)c23)C1 (racemic) [Compound 38, rac-6-(1-Isopropyl-1H-pyrazol-3-yl)-4-(3-(methoxymethyl)pyrrolidin-1-yl)-5-methyl-2-(1-methyl-1H-imidazol-2-yl)thieno[2,3-d]pyrimidine]
0.4 to 0.75 µM | 0.4 to 0.75 µM | < 0.4 µM | COC[C@@H]1CC[C@@H]1CNc1nc(-c2nccn2C)nc2sc(-c3ccn(C(C)C)n3)c(C)c12 (racemic) [Compound 63, rac-6-(1-Isopropyl-1H-pyrazol-3-y)-N-(((1S,2R)-2-(methoxymethyl)cyclobutyl)methyl)-5-methyl-2-(1-methyl-1H-imidazol-2-yl)thieno[2,3-d]pyrimidin-4-amine]
< 0.4 µM | 0.4 to 0.75 µM | 0.4 to 0.75 µM | CO[C@@H]1CC[C@H](Nc2nc(-c3nccn3C)nc3sc(-c4ccn(C(C)C)n4)c(-c4ccccc4)c23)C1 [Example 4, 6-(1-isopropyl-1H-pyrazol-3-yl)-N-((1S,3R)-3-methoxycyclopentyl)-2-(1-methyl-1H-imidazol-2-yl)-5-phenylthieno[2,3-d]pyrimidin-4-amine]
